Experimental data reported in US20250381324A1, “CD31 MIMETIC COATING FOR ENDOVASCULAR STENT” (INSERM (Institut National de la Santé et de la Recherche …, priority 2021, published 2025).
Square brackets hold non-standard residues; d marks the D form. Primed or numbered codes have the meaning given here. Ends that are not written are not given here. Lys(N3) = [N-]=[N+]=NCCCC[C@H](N)C(=O)O; PEG4′ = not defined here

What was measured:
[1] = test system: Primary Human Aortic Endothelial Cells (HAEC); assay: Human aortic endothelial cells grown 48 h on bare or peptide-coated nitinol disks; F-actin / CD31 staining and image analysis; assay type: cell-based
Experimental: Nitinol disks are left untouched (bare metal) or coated with a domain 1, domain 2 or domain 1 and 2 CD31 analog peptide. The tested peptide is grafted to the nitinol disk following a polydopamine, DBCO-PEG4-amine and azide CD31 derivative peptide using a sequential dip-coating layering procedure. After this step, all the disks are incubated with Human aortic endothelial cells for 48 h. Disks are then rinsed and the cells are fixed in a formalin solution before staining. The staining is fulfilled using phalloidin coupled to AlexaFluor®488 dye (green fluorescence for Actin), DAPI is used for DNA staining and a domain 1 CD31 antibody coupled to APC is used for external Domain 1 staining. The cell adhesion and Actin/CD31 expression was evaluated by image analysis of the surface after staining.
In particular, as per FIG. 2 the bare or coated nitinol disks were placed at the bottom of culture wells. Primary Human Aortic Endothelial Cells (HAEC) were allowed to grow on the disks for a period of 48 h. The disks were thereafter rinsed with phosphate buffered saline, fixed in formalin, and processed for fluorescence microscopy. Disk-adherent cells were immersed in a solution comprising Hoechst 33342 (1 μg/ml, to stain the nuclei), phalloidin coupled to AlexaFluor®488 dye (0.5 μM, to stain F-actin fibers) and a monoclonal antibody directed against CD31 domain 1, coupled to allophycocyanin (to detect the presence and localization of intact CD31 at the cell surface) for 1 hour at 37° C., washed and mounted face down on glass bottom imaging chambers for imaging with an inverted fluorescence microscope.
Surface type is indicated on the Y axis, data are expressed as average±SD (N=6/surface type). Each dot corresponds to a specific surface modification. The F-actin expression relates the cellular stress of the cell in presence of the exogenous material.
In FIG. 4 the surface type is indicated on the Y axis. Each dot corresponds to a specific surface modification. Data are expressed as “Integrated Density” average±SD (N=6/surface type). CD31 expression relates the capacity of endothelial cells to adopt a physiologic phenotype while growing on a given substrate. An important variability is observed in terms of CD31 expression by HAEC according to the surface modification of the nitinol disks.
The “mirror” bars of FIG. 5 report the average Integrated Density of F-actin (left) and of CD31 (right) staining for each of the indicated (Y axis) type of peptide coated onto the disk surface and bare disks. Data are sorted (from the top to the bottom) according to the increase in the cellular stress (actin expression) of each coating. As shown on the figure, the degree of cellular stress (as detected by a high actin expression) and impaired endothelial phenotype (documented by a low CD31 expression) is evident on HAEC grown onto bare metal disks.
The data shown in FIG. 6 are expressed as the ratio between CD31 and F-actin expression.
The effect of different peptides, belonging to the different groups, were tested in batches following the same protocol as in FIG. 6. Different peptides from each group were tested in batches and the effect of individual peptides was repeatedly assessed in separate experiments. Data from all experiments were obtained by computer-assisted analysis of images of the disk side covered with endothelial cells, captured in the blue, green and red channel of an inverted fluorescence microscope. The functional score of the peptides belonging to the different groups was calculated by multiplying the number of cells (as detected by the number of blue, Dapi+ nuclei) for the integrated density of CD31 expression (red signal provided by the binding of a mouse anti-human CD31 monoclonal antibody, clone 9G11, conjugated allophycocyanin) and their product being divided for the integrated density of the F-actin polymerization (Phalloidin coupled to a green fluorochrome). […]

[2] = test system: aneurysm-carrying artery and abdominal aorta; assay: Flow-diverter stents (CFD) implanted in rabbit aneurysm-carrying artery and abdominal aorta; SEM and histopathology (Example 3); assay type: in vivo, New Zealand White rabbits
Experimental: Flow-diverter stents (CFD) are braided meshes made of nitinol, from Sinomed. They are coated by one of the following coatings: • 1. SP1072 peptide according to the invention, or • 2. Hydrophilic polymer eG NTMA (obtained from the electrografting of N-[Tris (hydroxymethyl) Methyl]Acrylamide).
• 1) Transfer each stent in a 5 mL polypropylene round bottom tube (Bd Falcon Ref 352063). Insure the stent drops at the bottom of the tube. • 2) Add 4.5 mL of a 2 mg/mL PDA solution per tube. Homogenize each tube on a rotary wheel (approx. 20 rpm) overnight (18+/−2 h) at room temperature and protect from light. […] The stent color should change from silver to brown/black. After the incubation period the solution will become black with small PDA aggregates • 3) Transfer each stent in a new tube and rinse 3-times with demineralized water. homogenize on the rotary wheel 5 min at each rinse. • 4) Leave the last rinse and sonicate the tube for at least 30 s to discard any remaining PDA chunk. • 5) Transfer each stent in a 2 mL—Eppendorf tube containing 1.8 mL of DBCO (300 μM) per tube. Homogenize each tube on a rotary wheel (approx. 20 rpm) overnight at room temperature and protect from light. • 6) Transfer each stent in a new tube and rinse 3-times with demineralized water. Homogenize on the rotary well 5 min at each rinse. • 7) Transfer each stent in a 2 mL—Eppendorf tube containing 1.8 mL of CD31 peptide (50 μg/mL) per tube. Homogenize each tube on a rotary wheel (approx. 20 rpm) for 2 hours at room temperature and protect from light. • 8) Transfer each stent in a new tube and rinse 3-times with demineralized water. Homogenize on the rotary well 5 min at each rinse. • 9) Soak each stent in absolute Ethanol for 5 seconds before letting them dry.
Comparative hydrophilic polymer eG NTMA-coated flow diverter stents were obtained via the following protocol: • (1) Cleaning pretreatment: The stent frames were sonicated in acetone, ethanol, and water for injection for 10 min, respectively. • (2) Electro-grafting solution preparation: N-[tris(hydroxymethyl)methyl]acrylamide, concentration 0.30 M; NaNO3, concentration 0.05 M; 4-nitrophenyl tetrafluoroborate diazonium salt, 0.005 M; the remaining amount is DMSO solvent. • (3) Electro-grafting process: the pretreated stents were used as the working electrode, and a platinum foil was used as the counter electrode, which was submerged in the electro-grafting solution, and a linear sweep voltage between −0.1 and −3.0 V and back was applied between the two electrodes with a voltage scan rate of 0.05 V/s for 10 cycles. • (4) Coating smoothing and drying: the electrografted scaffold was smoothed in acetone (2 L) with nitrogen bubbling (rate 0.5-10 L/min) for 10 min and placed in a vacuum drying oven at 40° C. for 2 h.
A total of 8 healthy New Zealand White rabbits (including 2 spare animals), male and female, weighing about 3 kg, were included in this study. A total of 3 observation time points of 7 days, 30 days and 60 days postoperatively were set. The experiment was divided into two steps: 1) aneurysm animal modeling; 2) implantation of a dense mesh stent in the aneurysm-carrying artery and abdominal aorta for each animal. The stent implantation in the aneurysm-carrying artery was to be used to examine the safety and effectiveness of the stent in treating aneurysms, and the stent implantation in the abdominal aorta, covering a pair of lumbar arteries, was to be used to examine the safety of the tested stent.
Step 1) (aneurysm animal modeling) was performed as follows: • (a) The rabbit is placed supine on the operating table and the neck is shaved. […] Every 20 minutes, saline drips were injected into the rabbit's cervical vessels and vagus nerve to keep them moistened. […] Continue to use antibiotics for 3-5 days after surgery. […]

[3] = test system: aneurysm-carrying artery and abdominal aorta; assay: Flow-diverter stents (CFD) in rabbits without aspirin or clopidogrel after implantation (Example 4); assay type: in vivo, New Zealand White rabbits; conditions: day 7, n=3, no aspirin nor clopidogrel after implantation; preliminary
From the text: The same materials and protocol as in Example 3 were used, except that: • Only 3 animals were used for each condition, and • No aspirin nor clopidogrel was given to animals after the implantation.

[4] = day 7, aneurysm-carrying artery
[5] = day 60, aneurysm-carrying artery

For “YKSTVIVNNKEKTTAE-PEG4-K(N3)-CONH2 (YKSTVIVNNKEKTTAE[PEG4′][Lys(N3)]-NH2) [SP1072]”, the CD31/Actin score ([1]; Example 2, FIG. 25, repeated experiments (SP547, SP548 only one measure)) was “significantly higher than those obtained by the bare metal disks or by disks coated with PDA alone”, the “CD31 expression (physiologic endothelial phenotype), Integrated Density” value ([1]; HAEC 48 h on coated nitinol disks, compared to other modified disks and bare controls, FIGS. 2, 4, 5) was “evident positive effect in terms of CD31 expression” and the “ratio between CD31 and F-actin expression” value ([1]; compared to bare metal and disks coated with PDA only, FIG. 6) was “higher CD31/actin ratio”. For the same substance, the “endothelialization of inner surface of flow-diverter stents (conclusion)” value ([2]; Example 3 overall) was “promotes early endothelialization on the inner surface of the flow-diverter stents”, the “endothelialization of the device at sites other than the aneurysm entry (conclusion)” value ([2]; Example 3 overall) was “endothelialization of the device is fast and complete without apparent inflammation nor neointima” and the “neo arterial wall at the entry of the aneurysm sac (conclusion)” value ([2]; Example 3 overall) was “promotes the growth of an organized, blood-impermeable neo arterial wall at the entry of the aneurysm sac”. The “neo-wall covering the aneurysmal neck (histopathology)” value [2, 4] was “compact and rich in extracellular matrix (dark grey) and void of inflammation (no black nuclei) or thrombosis”, the “organization of thrombus in the aneurysmal sac (histopathology)” value [2, 4] was “organized” and the “organization of thrombus in the aneurysmal sac (histopathology)” value [2, 5] was “very well organized”. For the same substance, the “reaction of arterial wall in contact with stent struts (histopathology)” value [2, 5] was “absence of inflammation/thrombosis of the arterial wall that is already in contact with the stent struts” and the “survival and thrombus after implantation” value [3] was “still alive with no thrombus”.
